In PubChem BioAssay (NCI):
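Results reflect a 48-hour exposure of cells in 96-well plates to compound at five concentrations. GI50 marks 50% less growth. Definition used: TGI = concentration required for complete inhibition of growth.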

Experiments:
Assay in all cases: growth of human tumour cells (NCI), 48 h
ACHN renal = test system: ACHN renal
HOP-62 NSCLC = test system: HOP-62 NSCLC
HT29 colon = test system: HT29 colon
NCI-H460 lung = test system: NCI-H460 lung
OVCAR-3 ovarian = test system: OVCAR-3 ovarian
OVCAR-4 ovarian = test system: OVCAR-4 ovarian
SK-MEL-28 melanoma = test system: SK-MEL-28 melanoma
TK-10 renal = test system: TK-10 renal
RPMI-8226 leukemia = test system: RPMI-8226 leukemia
SW-620 colon = test system: SW-620 colon

Row | SMILES | TGI (ACHN renal) | TGI (HOP-62 NSCLC) | TGI (HT29 colon) | TGI (NCI-H460 lung) | TGI (OVCAR-3 ovarian) | TGI (OVCAR-4 ovarian) | TGI (SK-MEL-28 melanoma) | TGI (TK-10 renal) | GI50 (ACHN renal) | GI50 (HOP-62 NSCLC) | GI50 (HT29 colon) | GI50 (NCI-H460 lung) | GI50 (OVCAR-3 ovarian) | GI50 (OVCAR-4 ovarian) | GI50 (RPMI-8226 leukemia) | TGI (RPMI-8226 leukemia) | GI50 (SK-MEL-28 melanoma) | GI50 (SW-620 colon) | TGI (SW-620 colon) | GI50 (TK-10 renal)
1 | O=S(OC12CC3CC(CC(C3)C1)C2)c1cc(Cl)cc(Cl)c1OCc1ccccc1 (stereo not given) | > 100 µM | > 100 µM | > 100 µM | > 100 µM | > 100 µM | > 100 µM | > 100 µM | > 100 µM | – | – | – | – | – | – | – | – | – | – | – | –
2 | Nc1ccccc1.[C-]#[O+].[C-]#[O+].[C-]#[O+].[C-]#[O+].[C-]#[O+].[Cr] | > 10 µM | > 10 µM | > 10 µM | > 10 µM | > 10 µM | > 10 µM | > 10 µM | > 10 µM | 4.84 µM | 4.6 µM | > 10 µM | 5.64 µM | 3.18 µM | 6.7 µM | 3.39 µM | > 10 µM | 4.52 µM | > 10 µM | > 10 µM | 4.83 µM
3 | Cc1cn(C2CC(N)C(C(=O)NCC(=O)O)O2)c(=O)[nH]c1=O (stereo not given) | > 100 µM | > 100 µM | > 100 µM | > 100 µM | > 100 µM | > 100 µM | > 100 µM | > 100 µM | – | – | – | – | – | – | – | > 100 µM | – | – | > 100 µM | –
4 | O=[N+]([O-])c1ccccc1S(=O)(=O)c1ccccc1 | > 100 µM | > 100 µM | > 100 µM | > 100 µM | > 100 µM | > 100 µM | > 100 µM | > 100 µM | – | – | – | – | – | – | – | > 100 µM | – | – | > 100 µM | –
5 | CC(=O)OCC1OC(OCCCCCCO)C(OC(C)=O)C(OC(C)=O)C1OC(C)=O (stereo not given) | > 100 µM | > 100 µM | > 100 µM | > 100 µM | > 100 µM | > 100 µM | > 100 µM | > 100 µM | – | – | – | – | – | – | – | > 100 µM | – | – | > 100 µM | –
6 | CC1(C)C(=O)c2ccccc2OC1N1CCN(C2Oc3ccccc3C(=O)C2(C)C)CC1 (stereo not given) | > 100 µM | > 100 µM | > 100 µM | > 100 µM | > 100 µM | > 100 µM | > 100 µM | > 100 µM | – | – | – | – | – | – | – | > 100 µM | – | – | > 100 µM | –
7 | COc1ccc(-c2ccc(-c3ccc(C(=N)N)nc3)s2)cc1Cl | 3.15 µM | – | – | 3.36 µM | 3.24 µM | 3.25 µM | – | – | 1.77 µM | – | – | 1.8 µM | 1.83 µM | 1.74 µM | 2.25 µM | 4.9 µM | – | 1.79 µM | 3.37 µM | –
